{"source": "patent US9045524B2", "about": "“Selective caspase inhibitors and uses thereof” (NOVAGENESIS FOUNDATION, priority 2009, dated 2015)", "key": {"Caspase-3 [1]": {"target": "T1, Caspase-3 (Homo sapiens (Human), UniProt P42574)", "test": "Fluorometric enzymatic assay, active recombinant Caspase-3"}, "Caspase-9 [2]": {"target": "T2, Caspase-9 (Homo sapiens (Human), UniProt P55211)", "test": "Caspase-9 Inhibitor Drug Screening Kit, fluorometric (AFC liberation)", "assay_type": "biochemical", "details": "30-minute incubation at 37° C.; approximations of the average values; read-out: Caspase enzymatic activity, IC50 (uM) Caspase 9"}, "Caspase-1 [3]": {"target": "T3, Caspase-1 (Homo sapiens (Human), UniProt P29466)", "test": "Caspase-1 Inhibitor Drug Screening Kit, fluorometric (AFC liberation)", "assay_type": "biochemical", "details": "30-minute incubation at 37° C.; approximations of the average values; read-out: Caspase enzymatic activity, IC50 (uM) Caspase 1"}, "Caspase-4": {"target": "Caspase-4 (Homo sapiens (Human), UniProt P49662)", "test": "Fluorometric enzymatic assay, active recombinant Caspase-4"}, "Caspase-5": {"target": "Caspase-5 (Homo sapiens (Human), UniProt P51878)", "test": "Caspase-5 Inhibitor Drug Screening Kit, fluorometric (AFC liberation)", "assay_type": "biochemical", "details": "30-minute incubation at 37° C.; approximations of the average values; read-out: Caspase enzymatic activity, IC50 (uM) Caspase 5"}, "EAE in C57BL/6 mice": {"system": "EAE in C57BL/6 mice", "test": "Chronic EAE mouse model (MOG35-55 immunization), daily clinical score and body weight", "assay_type": "in vivo", "parameters": "key to Delay in onset of the disease / Reduction in severity of the disease / Reduction in body weight loss: +++: high level improvement; ++: moderate improvement; +: small improvement; −: no improvement", "procedure,_shortened": "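Female C57BL/6 mice, 7–8 weeks old, were immunized s.c. with 100 μg MOG35-55 in CFA containing M. tuberculosis H37Ra, plus 200 ng pertussis toxin i.p. on days 0 and 2. […], compound in 2.5% DMSO/PBS was given i.p.; vehicle for placebo. Clinical score (0–5) and body weight were recorded daily.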"}, "Caspase-1 [4]": {"target": "T3, Caspase-1", "test": "Fluorometric enzymatic assay, active recombinant Caspase-1"}, "Caspase-7": {"target": "Caspase-7 (Homo sapiens (Human), UniProt P55210)", "test": "Fluorometric enzymatic assay, active recombinant Caspase-7"}, "Caspase-9 [5]": {"target": "T2, Caspase-9", "test": "Fluorometric enzymatic assay, active recombinant Caspase-9", "details": "read-out: IC50 values (μM) Caspase-9; 10-point titration 0.1 nM to 3.3 μM, 30-minute incubation at 37° C."}, "Caspase-3 [6]": {"target": "T1, Caspase-3", "test": "Caspase-3 Inhibitor Drug Screening Kit, fluorometric (AFC liberation)", "assay_type": "biochemical"}, "Glo3/7": {"system": "Glo3/7", "test": "Glo3/7 assay", "assay_type": "biochemical"}, "[7]": {"details": "FIG. 1, i.p. from day 10 to 16 post immunization, versus placebo"}, "[8]": {"details": "FIG. 3, i.p. from day 14 to 19 post immunization, versus placebo"}, "[9]": {"details": "FIG. 4, administration for 15 days from day 12 post-immunization, versus placebo"}, "[10]": {"details": "average overall effects on the EAE model, i.p."}}, "data": [{"smiles": "CC(C)[C@H](NC(=O)[C@@H](NC(=O)[C@H](CC(=O)O)NC(=O)OCc1ccccc1)c1ccccc1)C(=O)N[C@H](/C=C/S(C)(=O)=O)CC(=O)O", "note": "[Compound 53, Z-Asp-Phg-Val-Aspmethyl vinyl sulfone]", "values": [{"measurement": "inhibitory activity towards Caspase-3", "setting": "Caspase-3 [1]; FIG. 5", "result": "high inhibitory activity"}, {"measurement": "IC50", "setting": "Caspase-3 [1]; read-out: IC50 values (μM) Caspase-3, 10-point titration 0.1 nM to 3.3 μM, 30-minute incubation at 37° C.", "result": 0.09, "unit": "µM"}, {"measurement": "IC50", "setting": "Caspase-9 [2]", "result": "> 10", "unit": "µM"}, {"measurement": "IC50", "setting": "Caspase-1 [3]", "result": 2, "unit": "µM"}, {"measurement": "inhibitory activity towards Caspase-4", "setting": "Caspase-4; FIG. 5", "result": "inhibitory activity"}, {"measurement": "IC50", "setting": "Caspase-4; read-out: IC50 values (μM) Caspase-4, 10-point titration 0.1 nM to 3.3 μM, 30-minute incubation at 37° C.", "result": 2.8, "unit": "µM"}, {"measurement": "IC50", "setting": "Caspase-5", "result": "> 10", "unit": "µM"}, {"measurement": "Cumulative clinical score", "setting": "EAE in C57BL/6 mice; [7]", "result": "significantly lower compared to placebo"}, {"measurement": "Disease onset", "setting": "EAE in C57BL/6 mice; [7]", "result": "delayed"}, {"measurement": "Loss of body weight", "setting": "EAE in C57BL/6 mice; [7]", "result": "less than the placebo"}, {"measurement": "clinical severity of the disease", "setting": "EAE in C57BL/6 mice; [7]", "result": "reduced significantly"}, {"measurement": "maximal clinical score", "setting": "EAE in C57BL/6 mice; [7]", "result": "significantly lower compared to placebo"}, {"measurement": "delay of the clinical score (symptoms of EAE)", "setting": "EAE in C57BL/6 mice; FIG. 3, i.p. from day 14 to 19 post immunization, twice the concentration of compound 53", "result": "delayed significantly the clinical score"}, {"measurement": "Loss of body weight", "setting": "EAE in C57BL/6 mice; [8]", "result": "less than in the placebo group"}, {"measurement": "effects on the clinical course of EAE", "setting": "EAE in C57BL/6 mice; [8]", "result": "ameliorating effects"}, {"measurement": "Loss of body weight", "setting": "EAE in C57BL/6 mice; [9]", "result": "less than placebo"}, {"measurement": "severity of the disease", "setting": "EAE in C57BL/6 mice; [9]", "result": "began to reverse the effects of the disease and reduced the severity of the disease continuously"}, {"measurement": "Delay in onset of the disease", "setting": "EAE in C57BL/6 mice; [10]", "result": "+++"}, {"measurement": "Reduction in body weight loss", "setting": "EAE in C57BL/6 mice; [10]", "result": "+++"}, {"measurement": "Reduction in severity of the disease", "setting": "EAE in C57BL/6 mice; [10]", "result": "+++"}, {"measurement": "inhibitory activity towards Caspase-1", "setting": "Caspase-1 [4]; FIG. 5", "result": "inhibitory activity"}, {"measurement": "IC50", "setting": "Caspase-1 [4]; read-out: IC50 values (μM) Caspase-1, 10-point titration 0.1 nM to 3.3 μM, 30-minute incubation at 37° C.", "result": 2.1, "unit": "µM"}, {"measurement": "inhibitory activity towards Caspase-7", "setting": "Caspase-7; FIG. 5", "result": "high inhibitory activity"}, {"measurement": "IC50", "setting": "Caspase-7; read-out: IC50 values (μM) Caspase-7, 10-point titration 0.1 nM to 3.3 μM, 30-minute incubation at 37° C.", "result": 0.8, "unit": "µM"}, {"measurement": "IC50", "setting": "Caspase-9 [5]", "result": "> 3.33", "unit": "µM"}, {"measurement": "IC50", "setting": "Caspase-3 [6]; 30-minute incubation at 37° C., approximations of the average values, read-out: Caspase enzymatic activity, IC50 (uM) Caspase 3", "result": 0.06, "unit": "µM"}, {"measurement": "selectivity of Caspase-3 over Caspase-7 based on IC50 values", "setting": "Caspase-3 [6]; IC50 caspase-7 versus caspase-3", "result": "about 12 fold"}, {"measurement": "IC50", "setting": "Caspase-3 [6]; read-out: IC50 caspase-3", "result": "0.03 to 0.09", "unit": "µM"}, {"measurement": "IC50", "setting": "Glo3/7", "result": 0.1, "unit": "µM"}]}]}
